Species: Rattus norvegicus
Assay: Open TG-GATES - Regimen: Daily Repeat
Assay type: toxicity, organism-based, Sprague-Dawley
Set-up: regimen Daily Repeat, gender Male, age 6 weeks
Settings: in vivo, po, route gavage; for APTT / Bas / Eos / Fbg / Hb / Ht / Lym / MCH / MCHC / MCV / Mono / Neu / PT / Plat / RBC / Ret / WBC: tissue Blood; for KIDNEY_L / KIDNEY_R / KIDNEY_TOTAL: tissue Kidney; for LIVER: tissue Liver; for A/G / ALP / ALT / AST / BUN / CRE / Ca / Cl / DBIL / GLC / IP / K / LDH / Na / PL / RALB / TBIL / TC / TG / TP / gamma-GTP: tissue Plasma
[1] = 0 mg/kg, 72 h, dose level Control, time 3 day
[2] = 0 mg/kg, […], dose level Control, time 7 day
[3] = 0 mg/kg, […], dose level Control, time 14 day
[4] = 0 mg/kg, […], dose level Control, time 28 day
[5] = 15 mg/kg, 72 h, dose level Low, time 3 day
[6] = 15 mg/kg, […], dose level Low, time 7 day
[7] = 15 mg/kg, […], dose level Low, time 14 day
[8] = 15 mg/kg, […], dose level Low, time 28 day

## O=c1ccc2ccccc2o1 [COUMARIN]
[1]
  TERMINAL_BW: 197.7 g
  APTT: 16.2 s
  Bas: 0%
  Eos: 1.2%
  Fbg: 204.2 mg/dL
  Hb: 13.4 g/dL
  Ht: 40.7%
  Lym: 64.8%
  MCH: 21.6 pg
  MCHC: 32.8%
  MCV: 65.9 fL
  Mono: 9.8%
  Neu: 24.2%
  PT: 11.8 s
  Plat: 97.8 x10_4/uL
  RBC: 617.8 x10_4/ul
  Ret: 8%
  WBC: 95.9 x10_2/uL
  KIDNEY_L: 0.9 g
  KIDNEY_R: 0.9 g
  KIDNEY_TOTAL: 1.9 g
  LIVER: 9.7 g
  A/G: 2.1
  ALP: 849.4 IU/L
  ALT: 39.8 IU/L
  AST: 68.6 IU/L
  BUN: 15.2 mg/dL
  CRE: 0.5 mg/dL
  Ca: 10.7 mg/dL
  Cl: 104.8 meq/L
  DBIL: 0.036 mg/dL
  GLC: 204.6 mg/dL
  IP: 8 mg/dL
  K: 4.9 meq/L
  LDH: 87.4 IU/L
  Na: 138.8 meq/L
  PL: 134.6 mg/dL
  RALB: 3.8 g/dL
  TBIL: 0.3 mg/dL
  TC: 79.6 mg/dL
  TG: 58.6 mg/dL
  TP: 5.6 g/dL
  gamma-GTP: 1 IU/L
[2]
  TERMINAL_BW: 227.5 g
  APTT: 16.5 s
  Bas: 0%
  Eos: 0.6%
  Fbg: 218.4 mg/dL
  Hb: 13.8 g/dL
  Ht: 41.6%
  Lym: 83.4%
  MCH: 21.3 pg
  MCHC: 33.2%
  MCV: 64.1 fL
  Mono: 4%
  Neu: 11.8%
  PT: 12 s
  Plat: 108.5 x10_4/uL
  RBC: 649.8 x10_4/ul
  Ret: 6.1%
  WBC: 145 x10_2/uL
  KIDNEY_L: 1 g
  KIDNEY_R: 1 g
  KIDNEY_TOTAL: 2 g
  LIVER: 11.4 g
  A/G: 2.2
  ALP: 954.6 IU/L
  ALT: 35.6 IU/L
  AST: 58 IU/L
  BUN: 17.8 mg/dL
  CRE: 0.6 mg/dL
  Ca: 10.6 mg/dL
  Cl: 104.8 meq/L
  DBIL: 0.014 mg/dL
  GLC: 189.8 mg/dL
  IP: 7.5 mg/dL
  K: 4.9 meq/L
  LDH: 79.6 IU/L
  Na: 138.6 meq/L
  PL: 142.6 mg/dL
  RALB: 3.9 g/dL
  TBIL: 0.3 mg/dL
  TC: 70 mg/dL
  TG: 108.8 mg/dL
  TP: 5.7 g/dL
  gamma-GTP: 1.4 IU/L
[3]
  TERMINAL_BW: 286.1 g
  APTT: 16.7 s
  Bas: 0.2%
  Eos: 0.6%
  Fbg: 230.2 mg/dL
  Hb: 14.2 g/dL
  Ht: 42.9%
  Lym: 81%
  MCH: 20.6 pg
  MCHC: 33.2%
  MCV: 62 fL
  Mono: 7.4%
  Neu: 10.8%
  PT: 11.7 s
  Plat: 117.6 x10_4/uL
  RBC: 692.4 x10_4/ul
  Ret: 4.8%
  WBC: 114.9 x10_2/uL
  KIDNEY_L: 1.2 g
  KIDNEY_R: 1.2 g
  KIDNEY_TOTAL: 2.3 g
  LIVER: 14 g
  A/G: 2
  ALP: 840.4 IU/L
  ALT: 32.4 IU/L
  AST: 59 IU/L
  BUN: 17.2 mg/dL
  CRE: 0.6 mg/dL
  Ca: 10.8 mg/dL
  Cl: 106.2 meq/L
  DBIL: 0.08 mg/dL
  GLC: 192 mg/dL
  IP: 7.5 mg/dL
  K: 4.8 meq/L
  LDH: 84.8 IU/L
  Na: 139.4 meq/L
  PL: 165.8 mg/dL
  RALB: 4 g/dL
  TBIL: 0.3 mg/dL
  TC: 84 mg/dL
  TG: 104 mg/dL
  TP: 6 g/dL
  gamma-GTP: 1.4 IU/L
[4]
  TERMINAL_BW: 359.5 g
  APTT: 17.8 s
  Bas: 0.2%
  Eos: 1.2%
  Fbg: 225 mg/dL
  Hb: 15.1 g/dL
  Ht: 45.2%
  Lym: 79.6%
  MCH: 19.6 pg
  MCHC: 33.4%
  MCV: 58.8 fL
  Mono: 5%
  Neu: 13.8%
  PT: 12 s
  Plat: 101 x10_4/uL
  RBC: 769 x10_4/ul
  Ret: 2.8%
  WBC: 128.8 x10_2/uL
  KIDNEY_L: 1.4 g
  KIDNEY_R: 1.4 g
  KIDNEY_TOTAL: 2.7 g
  LIVER: 16.1 g
  A/G: 1.7
  ALP: 705.8 IU/L
  ALT: 31.2 IU/L
  AST: 54.2 IU/L
  BUN: 18.8 mg/dL
  CRE: 0.6 mg/dL
  Ca: 10.7 mg/dL
  Cl: 106 meq/L
  DBIL: 0.012 mg/dL
  GLC: 215 mg/dL
  IP: 6.5 mg/dL
  K: 4.5 meq/L
  LDH: 51 IU/L
  Na: 138.8 meq/L
  PL: 137.4 mg/dL
  RALB: 4 g/dL
  TBIL: 0.3 mg/dL
  TC: 63 mg/dL
  TG: 126 mg/dL
  TP: 6.4 g/dL
  gamma-GTP: 1 IU/L
[5]
  TERMINAL_BW: 198.3 g
  APTT: 15.1 s
  Bas: 0%
  Eos: 1%
  Fbg: 192.4 mg/dL
  Hb: 13.1 g/dL
  Ht: 39.5%
  Lym: 72.2%
  MCH: 21.5 pg
  MCHC: 33.2%
  MCV: 64.8 fL
  Mono: 9.8%
  Neu: 17%
  PT: 11.6 s
  Plat: 110.7 x10_4/uL
  RBC: 608.6 x10_4/ul
  Ret: 7.9%
  WBC: 108.8 x10_2/uL
  KIDNEY_L: 0.9 g
  KIDNEY_R: 0.9 g
  KIDNEY_TOTAL: 1.8 g
  LIVER: 10.1 g
  A/G: 2.1
  ALP: 921.6 IU/L
  ALT: 40.6 IU/L
  AST: 68 IU/L
  BUN: 14.8 mg/dL
  CRE: 0.5 mg/dL
  Ca: 10.8 mg/dL
  Cl: 104.6 meq/L
  DBIL: 0.02 mg/dL
  GLC: 190 mg/dL
  IP: 8.3 mg/dL
  K: 4.9 meq/L
  LDH: 78.2 IU/L
  Na: 138.8 meq/L
  PL: 150 mg/dL
  RALB: 3.7 g/dL
  TBIL: 0.3 mg/dL
  TC: 89.2 mg/dL
  TG: 68 mg/dL
  TP: 5.5 g/dL
  gamma-GTP: 1.6 IU/L
[6]
  TERMINAL_BW: 228.4 g
  APTT: 16 s
  Bas: 0%
  Eos: 1%
  Fbg: 223.8 mg/dL
  Hb: 13.9 g/dL
  Ht: 42%
  Lym: 81.6%
  MCH: 21.3 pg
  MCHC: 33%
  MCV: 64.4 fL
  Mono: 5.2%
  Neu: 12.4%
  PT: 11.5 s
  Plat: 119 x10_4/uL
  RBC: 653.2 x10_4/ul
  Ret: 6.1%
  WBC: 129.6 x10_2/uL
  KIDNEY_L: 1 g
  KIDNEY_R: 1 g
  KIDNEY_TOTAL: 2 g
  LIVER: 11.6 g
  A/G: 2.1
  ALP: 1042 IU/L
  ALT: 34.2 IU/L
  AST: 53.8 IU/L
  BUN: 16 mg/dL
  CRE: 0.5 mg/dL
  Ca: 10.9 mg/dL
  Cl: 104.8 meq/L
  DBIL: 0.022 mg/dL
  GLC: 192 mg/dL
  IP: 7.4 mg/dL
  K: 5 meq/L
  LDH: 85.4 IU/L
  Na: 138.4 meq/L
  PL: 178.6 mg/dL
  RALB: 4 g/dL
  TBIL: 0.3 mg/dL
  TC: 97.6 mg/dL
  TG: 96 mg/dL
  TP: 6 g/dL
  gamma-GTP: 2 IU/L
[7]
  TERMINAL_BW: 282.9 g
  APTT: 17.1 s
  Bas: 0%
  Eos: 0.6%
  Fbg: 225.6 mg/dL
  Hb: 13.9 g/dL
  Ht: 41.8%
  Lym: 82.6%
  MCH: 20.4 pg
  MCHC: 33.3%
  MCV: 61.2 fL
  Mono: 4.8%
  Neu: 12%
  PT: 11.4 s
  Plat: 118.1 x10_4/uL
  RBC: 683 x10_4/ul
  Ret: 4.8%
  WBC: 144.2 x10_2/uL
  KIDNEY_L: 1.1 g
  KIDNEY_R: 1.1 g
  KIDNEY_TOTAL: 2.3 g
  LIVER: 14.2 g
  A/G: 1.9
  ALP: 761.8 IU/L
  ALT: 40 IU/L
  AST: 59 IU/L
  BUN: 18.2 mg/dL
  CRE: 0.5 mg/dL
  Ca: 10.9 mg/dL
  Cl: 106 meq/L
  DBIL: 0.042 mg/dL
  GLC: 194.6 mg/dL
  IP: 6.6 mg/dL
  K: 5.1 meq/L
  LDH: 87 IU/L
  Na: 138.2 meq/L
  PL: 171.2 mg/dL
  RALB: 4 g/dL
  TBIL: 0.3 mg/dL
  TC: 84.4 mg/dL
  TG: 116.8 mg/dL
  TP: 6.1 g/dL
  gamma-GTP: 1.2 IU/L
[8]
  TERMINAL_BW: 347.7 g
  APTT: 18.3 s
  Bas: 0%
  Eos: 1.2%
  Fbg: 217.2 mg/dL
  Hb: 14.8 g/dL
  Ht: 44%
  Lym: 80%
  MCH: 19.9 pg
  MCHC: 33.5%
  MCV: 59.3 fL
  Mono: 8%
  Neu: 11%
  PT: 11.8 s
  Plat: 108.5 x10_4/uL
  RBC: 743.6 x10_4/ul
  Ret: 3%
  WBC: 134.3 x10_2/uL
  KIDNEY_L: 1.3 g
  KIDNEY_R: 1.3 g
  KIDNEY_TOTAL: 2.6 g
  LIVER: 16.4 g
  A/G: 1.7
  ALP: 681.4 IU/L
  ALT: 33.2 IU/L
  AST: 52.4 IU/L
  BUN: 19.6 mg/dL
  CRE: 0.6 mg/dL
  Ca: 10.8 mg/dL
  Cl: 107.4 meq/L
  DBIL: 0.012 mg/dL
  GLC: 187.6 mg/dL
  IP: 6.7 mg/dL
  K: 4.3 meq/L
  LDH: 46.4 IU/L
  Na: 139.4 meq/L
  PL: 145.6 mg/dL
  RALB: 4.2 g/dL
  TBIL: 0.4 mg/dL
  TC: 70.8 mg/dL
  TG: 123.8 mg/dL
  TP: 6.6 g/dL
  gamma-GTP: 1 IU/L
